# Assay results as given in patent publication US8476255B2, “Histone deacetylase inhibitors” (Orchid Chemicals & Pharmaceuticals Limited, priority 2007, dated 2013).
# Columns and labels:
# NCIH460 (lung) cells = test: Anti-cancer screen (MTT), NCIH460; type: cell-based; settings: Homo sapiens, NCI-H460, NCIH460, 48 hours, MTT; for GI50: read-out: Cell growth inhibition NCIH460 (Lung) GI50; for LC50: read-out: Cell growth inhibition NCIH460 (Lung) LC50; for IC (TGI): read-out: Cell growth inhibition NCIH460 (Lung) TGI
# Summary of the method: (§1)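 A570 read-out after a 3 h MTT step and DMSO solubilisation; a separate plate measured at drug addition served as T0. Treatment lasted 48 h at five concentrations (0.01–100 μM) after 24 h attachment in DMEM/10% FBS; SAHA as standard.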
# HCT 116 (colon) cells = test: Anti-cancer screen (MTT), HCT 116; type: cell-based; settings: Homo sapiens, HCT-116, HCT116, 48 hours, MTT; for GI50: read-out: Cell growth inhibition HCT116 (Colon) GI50; for CC50: read-out: Cell growth inhibition HCT116 (Colon) LC50; for IC (TGI): read-out: Cell growth inhibition HCT116 (Colon) TGI
# Summary of the method: as §1
# U251 (glioma) cells = test: Anti-cancer screen (MTT), U251; type: cell-based; settings: Homo sapiens, U-251, U251, 48 hours, MTT; for GI50: read-out: Cell growth inhibition U251 (Glioma) GI50; for LC50 (concentration giving 50% net cell kill relative to the time-zero cell count): read-out: Cell growth inhibition U251 (Glioma) LC50; for IC (TGI): read-out: Cell growth inhibition U251 (Glioma) TGI
# Summary of the method: as §1
# [1] = system: NCIH460, HCT116 and U251 cells; test: Anti-cancer screen, mean GI50 over cell lines; type: cell-based; settings: mean over cell lines; read-out: Cell growth inhibition Mean GI50
# Summary of the method: as §1
# [2] = system: HDAC (Mouse Liver Extract); test: HDAC inhibition assay using Boc-Lys(Ac)-AMC substrate; type: biochemical; settings: mouse liver enzyme
# Summary of the method: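 Boc-Lys(Ac)-AMC substrate incubated with mouse liver extract as HDAC source, 5 min preincubation then 30 min at 37° C. Trypsin stop solution added (37° C., 15-30 min) to release AMC, read at ex 360/em 460 nm; buffer-only and substrate-only wells as blanks.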
# recombinant HDAC1 enzyme = recombinant HDAC1 enzyme (Homo sapiens (Human), UniProt Q13547); test: HDAC1 inhibitory activity (isoform selectivity); type: biochemical; settings: read-out: HDAC1 inhibition (IC50)
# Chain of recombinant HDAC1 enzyme (Q13547 whole entry, canonical isoform): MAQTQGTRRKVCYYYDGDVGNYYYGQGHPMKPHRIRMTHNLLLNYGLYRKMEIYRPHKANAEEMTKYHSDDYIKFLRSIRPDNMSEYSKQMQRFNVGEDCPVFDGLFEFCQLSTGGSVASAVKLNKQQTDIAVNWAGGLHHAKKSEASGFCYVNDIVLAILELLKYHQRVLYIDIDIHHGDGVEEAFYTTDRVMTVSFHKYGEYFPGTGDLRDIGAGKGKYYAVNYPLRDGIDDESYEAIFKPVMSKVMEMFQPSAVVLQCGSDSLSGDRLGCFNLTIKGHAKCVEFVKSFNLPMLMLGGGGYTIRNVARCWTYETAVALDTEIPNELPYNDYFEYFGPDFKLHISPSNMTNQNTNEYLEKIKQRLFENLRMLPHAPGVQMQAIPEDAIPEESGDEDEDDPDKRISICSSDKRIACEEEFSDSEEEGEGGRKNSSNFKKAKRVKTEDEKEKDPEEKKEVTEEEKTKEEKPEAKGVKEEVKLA
# Method: The assay was carried out, as previously described using recombinant HDAC1 enzyme (BIOMOL, USA) and following manufacturer's instructions.
# Acetylated histone (H3) = test: Histone (H3) acetylation, sandwich ELISA in HCT116 lysate; type: cell-based; settings: HCT116, 4 hours
# Method: (§2) Acetylated histone (H3), acetylated Tubulin and p21 levels were detected in cell lysate by sandwich ELISA method (Cell Signaling Technology, USA, Cat No: 7232, 7204 & 7167 respectively) by following manufacturer's instructions. Briefly, colon cancer cells (HCT116. 10,000/well) were incubated with test compound (1 and 10 μM) or medium (control) for 4 hours at 37° C. in CO2 incubator. The incubation lasted 18 hours for p21 induction. After incubation, cell lysates were prepared in cell lysis buffer by sonication on ice. The lysates were collected after centrifugation and subjected to ELISA test procedure. 100 μL of each diluted cell lysate in dilution buffer (1:1) was added to appropriate capture antibody coated microwells and incubated overnight at 4° C. After washing, 100 μL of detection antibody was added for 1 hour at 37° C. After second washing, 100 μL of HRP-linked secondary antibody was added for 30 min at 37° C. Finally, after appropriate washing, 100 μL of TMB substrate was added for 10 min at 37° C. followed by 100 μL of stop solution. The absorbance of individual wells was read using a spectrophotometer at 450 nm (A450).
# acetylated Tubulin = test: Tubulin acetylation, sandwich ELISA in HCT116 lysate; type: cell-based; settings: HCT116, 4 hours
# Method: as §2
# p21 = p21 induction, sandwich ELISA in HCT116 lysate; type: cell-based; settings: HCT116, 18 hours
# Method: as §2
SMILES,GI50 (NCIH460 (lung) cells) [µM],LC50 (NCIH460 (lung) cells) [µM],IC (TGI) (NCIH460 (lung) cells) [µM],GI50 (HCT 116 (colon) cells) [µM],CC50 (HCT 116 (colon) cells) [µM],IC (TGI) (HCT 116 (colon) cells) [µM],GI50 (U251 (glioma) cells) [µM],LC50 (concentration giving 50% net cell kill relative to the time-zero cell count) (U251 (glioma) cells) [µM],IC (TGI) (U251 (glioma) cells) [µM],GI50 [1] [µM],HDAC inhibition % (1 μM) [2] [%],HDAC inhibition % (10 μM) [2] [%],IC50 [2] [µM],IC50 (recombinant HDAC1 enzyme) [µM],H3 acetylation (Fold increase) (Acetylated histone (H3); 1 μM),H3 acetylation (Fold increase) (Acetylated histone (H3); 10 μM),Tubulin acetylation (Fold increase) (acetylated Tubulin; 1 μM),Tubulin acetylation (Fold increase) (acetylated Tubulin; 10 μM),P21 induction (Fold increase) (p21; 1 μM),P21 induction (Fold increase) (p21; 10 μM)
"COc1ccc(/C=C(/C(=O)NCc2ccc(C(=O)Nc3ccccc3N)cc2)c2ccccc2F)cc1OC [Compound 28, N-(2-Aminophenyl)-4-((3-(3,4-dimethoxyphenyl)-2-(2-fluorophenyl)acrylamido)methyl)benzamide]",1,> 100,> 100,0.1,> 100,> 100,5.5,> 100,> 100,2.2,41.3,65.6,9.5,0.036,1.1,5.6,1.9,6.2,1.5,2.5
"COc1ccc(/C=C(/C(=O)NCc2ccc(C(=O)Nc3ccccc3N)cc2)c2ccccc2)cc1OC [Compound 31, N-(2-Aminophenyl)-4-((3-(3,4-dimethoxyphenyl)-2-phenylacrylamido)methyl)benzamide]",1.1,> 100,> 100,0.02,> 100,40,3.8,> 100,50,1.6,36.5,65.5,7.9,0.054,0.9,1.7,1.2,2.1,1.2,2.8
"COc1ccc(/C=C(/C(=O)NCc2ccc(C(=O)Nc3ccccc3N)cc2)c2cccc(F)c2)cc1OC [Compound 32, N-(2-Aminophenyl)-4-((3-(3,4-dimethoxyphenyl)-2-(3-fluorophenyl)acrylamido)methyl)benzamide]",1.8,> 100,> 100,–,> 100,100,2.1,> 100,48,1.3,39.9,61.2,4.8,0.052,–,–,–,–,–,–
"CSc1ccc(/C=C(/C(=O)NCc2ccc(C(=O)NO)cc2)c2cccnc2)cc1 [Compound 55, 4-((2-(Pyridin-3-yl)-3-(4-methylthiophenyl)acrylamido)methyl)-N-hydroxybenzamide]",1,> 100,39,1.1,48,6.2,0.2,56,0.4,0.8,85.7,95.1,0.02,–,4.2,7.7,10.4,11,1.3,2.5
"COc1ccc(/C=C(/C(=O)NCc2ccc(C(=O)Nc3ccccc3N)cc2)c2ccc(C)cc2)cc1OC [Compound 29, N-(2-Aminophenyl)-4-((3-(3,4-dimethoxyphenyl)-2-(4-methylphenyl)acrylamido)methyl)benzamide]",3.1,> 100,> 100,0.3,> 100,40,11,> 100,45,4.8,34.2,52.8,34,0.057,–,–,–,–,–,–
"Nc1ccccc1NC(=O)c1ccc(CNC(=O)/C(=C/c2ccc([N+](=O)[O-])s2)c2ccc(F)cc2)cc1 [Compound 7, N-(2-Aminophenyl)-4-((3-(5-nitrothiophen-2-yl)-2-(4-fluorophenyl)acrylamido)methyl)benzamide]",6.2,73.8,26.5,4.5,71.2,9.6,17,76,34.5,9.2,12.4,19.4,–,–,–,–,–,–,–,–
"COc1ccc(/C=C(/C(=O)NCc2ccc(C(=O)Nc3ccccc3N)cc2)c2ccc(F)cc2)cc1 [Compound 11, N-(2-Aminophenyl)-4-((3-(4-methoxyphenyl)-2-(4-fluorophenyl)acrylamido)methyl)benzamide]",8,83,41.2,5,68.5,12.5,26.1,86,53,13,9.7,24.6,–,–,–,–,–,–,–,–
"COc1ccc(/C=C(/C(=O)NCc2ccc(C(=O)Nc3ccccc3N)cc2)c2ccccc2Cl)cc1OC [Compound 30, N-(2-Aminophenyl)-4-((3-(3,4-dimethoxyphenyl)-2-(2-chlorophenyl)acrylamido)methyl)benzamide]",> 100,> 100,> 100,100,> 100,> 100,1,> 100,> 100,50.5,7.1,30.1,–,–,–,–,–,–,–,–
